Columns and labels:
[1] = target: T1, Human Thyroid Hormone Receptor β1 (TRβ1) (Homo sapiens, UniProt P10828); test: Transcription activation test of human thyroid hormone receptor β1 (luciferase reporter in 293T cells); format: cell-based; conditions: EC50 of transcription activation on TRβ1, 293T cells, luciferase activity after 24 hr; read-out: TRβ
T1 construct: expressed in transfected cells; host or cells: 293T cells
T1 sequence (P10828 1-461): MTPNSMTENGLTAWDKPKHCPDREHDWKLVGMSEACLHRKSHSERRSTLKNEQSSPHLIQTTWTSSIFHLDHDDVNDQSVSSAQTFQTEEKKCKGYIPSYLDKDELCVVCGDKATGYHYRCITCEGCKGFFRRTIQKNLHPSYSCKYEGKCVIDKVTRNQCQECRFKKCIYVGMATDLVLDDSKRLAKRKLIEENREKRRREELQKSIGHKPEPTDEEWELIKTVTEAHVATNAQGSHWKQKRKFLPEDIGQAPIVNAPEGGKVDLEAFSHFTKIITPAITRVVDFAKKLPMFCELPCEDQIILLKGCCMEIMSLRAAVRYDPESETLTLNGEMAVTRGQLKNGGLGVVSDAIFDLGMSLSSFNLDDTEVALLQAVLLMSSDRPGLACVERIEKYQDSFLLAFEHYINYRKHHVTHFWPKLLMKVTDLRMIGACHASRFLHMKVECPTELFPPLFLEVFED
From the text: (§1) Transcription Activation Test of Human Thyroid Hormone Receptors α1 (TRα1) and β1 (TRβ1)
(§2) pcDNA3.1 vector (manufactured by Invitrogen) that expresses TRα1 or β1 cloned from human liver-derived cells, and firefly luciferase expression vector pDR4-LuC (manufactured by Stratagene) having a thyroid hormone response sequence to be a reporter were transfected into 293T cells cultured in Dulbecco's modified Eagle medium (DMEM) containing 10% of activated carbon/dextran-treated fetal bovine serum (FBS) by using Lipofectamine2000 (manufactured by Invitrogen). After 16 hr, the cells were plated again in a 96 well plate, and the medium was exchanged with DMEM containing 0.1% activated carbon/dextran-treated FBS. After 3 more hr, a compound diluted with dimethyl sulfoxide solution was added, and the luciferase activity after 24 hr was measured.
(§3) As a positive control, 3,3′,5-triiodo-L-thyronine (T3), which is a biological ligand, was used. The transcription activation action of the compound on TRα1 and TRβ1 was shown by each EC50 value and the maximum luciferase activity value relative to the maximum luciferase activity value of T3 as 100.

[2] = target: T2, Human Thyroid Hormone Receptor α1 (TRα1) (Homo sapiens, UniProt P10827); test: Transcription activation test of human thyroid hormone receptor α1 (luciferase reporter in 293T cells); format: cell-based; conditions: ratio TRα/TRβ of the transcription activation EC50 values
T2 construct: expressed in transfected cells; host or cells: 293T cells
T2 sequence (P10827 1-410 isoform P10827-2): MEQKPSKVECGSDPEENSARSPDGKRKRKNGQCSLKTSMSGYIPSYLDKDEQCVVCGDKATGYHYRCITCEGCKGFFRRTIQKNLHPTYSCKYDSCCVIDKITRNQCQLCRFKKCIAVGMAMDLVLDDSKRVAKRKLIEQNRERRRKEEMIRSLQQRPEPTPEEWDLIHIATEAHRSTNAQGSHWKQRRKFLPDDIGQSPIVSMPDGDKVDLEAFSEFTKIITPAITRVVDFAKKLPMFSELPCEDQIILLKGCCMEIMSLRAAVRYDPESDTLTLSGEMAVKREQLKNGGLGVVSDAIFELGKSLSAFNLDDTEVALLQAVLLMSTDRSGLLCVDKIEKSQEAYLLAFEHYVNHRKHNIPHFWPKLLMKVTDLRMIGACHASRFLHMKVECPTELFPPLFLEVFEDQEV
From the text: as §1, §2, §3

| EC50 [1] | selectivity (TRα/TRβ) [2] | SMILES |
| --- | --- | --- |
| 2 nM | A (5<(TRα/TRβ)) | Cc1cc(OCc2noc(=O)[nH]2)cc(C)c1Cc1ccc(O)c(-c2ccc3ccccc3c2)n1 [Example 29, 3-[(4-{[5-hydroxy-6-(2-naphthyl)pyridin-2-yl]methyl}-3,5-dimethylphenoxy)methyl]-1,2,4-oxadiazol-5(4H)-one] |
| 0.4 nM | B (2<(TRα/TRβ)<5) | Cc1cc(OCc2noc(=O)[nH]2)c(C)c(C)c1Cc1ccc(O)c(C2CCCC2)n1 [Example 32, 3-({4-[(6-cyclopentyl-5-hydroxypyridin-2-yl)methyl]-2,3,5-trimethylphenoxy}methyl)-1,2,4-oxadiazol-5(4H)-one] |
| 3 nM | B (2<(TRα/TRβ)<5) | Cc1cc(OCC(=O)O)cc(C)c1Cc1ccc(O)c(C(C)C)n1 [Example 1, {4-[(5-hydroxy-6-isopropylpyridin-2-yl)methyl]-3,5-dimethylphenoxy}acetic acid] |
| 4 nM | B (2<(TRα/TRβ)<5) | Cc1cc(NCC(=O)O)c(C)c(C)c1Cc1ccc(O)c(C2CCCCC2)n1 [Example 62, N-{4-[(6-cyclohexyl-5-hydroxypyridin-2-yl)methyl]-2,3,5-trimethylphenyl}glycine] |
| 50 nM | A (5<(TRα/TRβ)) | Cc1cc(OCC(=O)O)c(C)c(C)c1Cc1ccc(O)c(C2CCCCO2)n1 (centres unmarked) [Example 8, (4-{[5-hydroxy-6-(tetrahydro-2H-pyran-2-yl)pyridin-2-yl]methyl}-2,3,5-trimethylphenoxy)acetic acid] |
| 20 nM | B (2<(TRα/TRβ)<5) | Cc1cc(OCc2noc(=O)[nH]2)c(F)c(C)c1Cc1ccc(O)c(N2CCCCC2)n1 [Example 118, 3-({2-fluoro-4-[(5-hydroxy-6-piperidin-1-ylpyridin-2-yl)methyl]-3,5-dimethylphenoxy}methyl)-1,2,4-oxadiazol-5(4H)-one] |
| 0.5 nM | B (2<(TRα/TRβ)<5) | Cc1cc(OCC(=O)O)c(C)c(C)c1Cc1ccc(O)c(C(C)C)n1 [Example 4, {4-[(5-hydroxy-6-isopropylpyridin-2-yl)methyl]-2,3,5-trimethylphenoxy}acetic acid] |
| 0.4 nM | A (5<(TRα/TRβ)) | Cc1cc(OCC(=O)O)c(C)c(C)c1Cc1ccc(O)c(-c2cccc(Cl)c2)n1 [Example 173, (4-{[6-(3-chlorophenyl)-5-hydroxypyridin-2-yl]methyl}-2,3,5-trimethylphenoxy)acetic acid] |
| 4 nM | C (2>(TRα/TRβ)) | Cc1cc(NC(=O)C(=O)O)c(C)c(C)c1Cc1ccc(O)c(C2CCCCC2)n1 [Example 20, ({4-[(6-cyclohexyl-5-hydroxypyridin-2-yl)methyl]-2,3,5-trimethylphenyl}amino)(oxo)acetic acid] |
| 10 nM | A (5<(TRα/TRβ)) | Cc1cc(OCC(=O)O)c(C)c(C)c1Cc1cc(F)c(O)c(C2CCCCC2)n1 [Example 65, {4-[(6-cyclohexyl-4-fluoro-5-hydroxypyridin-2-yl)methyl]-2,3,5-trimethylphenoxy}acetic acid] |
| 0.1 nM | B (2<(TRα/TRβ)<5) | Cc1cc(-c2cc(O)no2)c(C)c(C)c1Cc1ccc(O)c(C(C)C)n1 [Example 81, 6-[4-(3-hydroxyisoxazol-5-yl)-2,3,6-trimethylbenzyl]-2-isopropylpyridin-3-ol] |
| 1 nM | C (2>(TRα/TRβ)) | Cc1cc(CC(F)C(=O)O)c(C)c(C)c1Cc1ccc(O)c(C2CCCCC2)n1 (centres unmarked) [Example 136, 3-{4-[(6-cyclohexyl-5-hydroxypyridin-2-yl)methyl]-2,3,5-trimethylphenyl}-2-fluoropropanoic acid] |
| 30 nM | B (2<(TRα/TRβ)<5) | Cc1cc(NC(=O)CC(=O)O)cc(C)c1Cc1ccc(O)c(C(C)C)n1 [Example 21, 3-({4-[(5-hydroxy-6-isopropylpyridin-2-yl)methyl]-3,5-dimethylphenyl}amino)-3-oxopropanoic acid] |
| 4 nM | A (5<(TRα/TRβ)) | Cc1cc(-n2nc(C#N)c(=O)[nH]c2=O)cc(C)c1Cc1ccc(O)c(-c2ccccc2)n1 [Example 216, 2-{4-[(5-hydroxy-6-phenylpyridin-2-yl)methyl]-3,5-dimethylphenyl}-3,5-dioxo-2,3,4,5-tetrahydro-1,2,4-triazine-6-carbonitrile] |
| 300 nM | B (2<(TRα/TRβ)<5) | Cc1cc(C(=O)O)c(C)c(C)c1Cc1ccc(O)c(C2CCCCC2)n1 [Example 42, 4-[(6-cyclohexyl-5-hydroxypyridin-2-yl)methyl]-2,3,5-trimethylbenzoic acid] |
| 20 nM | B (2<(TRα/TRβ)<5) | Cc1cc(OC(C)(C)C(=O)O)c(C)c(C)c1Cc1ccc(O)c(C2CCCCC2)n1 [Example 17, 2-{4-[(6-cyclohexyl-5-hydroxypyridin-2-yl)methyl]-2,3,5-trimethylphenoxy}-2-methylpropanoic acid] |
| 20 nM | A (5<(TRα/TRβ)) | Cc1cc(OCC(=O)O)cc(C)c1Cc1ccc(O)c(-c2ccc3ccccc3c2)n1 [Example 3, (4-{[5-hydroxy-6-(2-naphthyl)pyridin-2-yl]methyl}-3,5-dimethylphenoxy)acetic acid] |
| 0.4 nM | B (2<(TRα/TRβ)<5) | Cc1cc(OCc2noc(=O)[nH]2)c(C)c(C)c1Cc1ccc(O)c(C2CCCCC2)n1 [Example 34, 3-({4-[(6-cyclohexyl-5-hydroxypyridin-2-yl)methyl]-2,3,5-trimethylphenoxy}methyl)-1,2,4-oxadiazol-5(4H)-one] |
| 30 nM | B (2<(TRα/TRβ)<5) | Cc1cc(OCC(=O)O)c(C)c(C)c1Oc1ccc(O)c(C2CCCCC2)n1 [Example 10, {4-[(6-cyclohexyl-5-hydroxypyridin-2-yl)oxy]-2,3,5-trimethylphenoxy}acetic acid] |
| 0.3 nM | C (2>(TRα/TRβ)) | Cc1cc(OCc2noc(=O)[nH]2)cc(C)c1Cc1ccc(O)c(C(C)C)n1 [Example 27, 3-({4-[(5-hydroxy-6-isopropylpyridin-2-yl)methyl]-3,5-dimethylphenoxy}methyl)-1,2,4-oxadiazol-5(4H)-one] |
| 5 nM | B (2<(TRα/TRβ)<5) | Cc1cc(OCC(=O)O)c2c(c1Cc1ccc(O)c(C3CCCCC3)n1)CCC2 [Example 152, ({7-[(6-cyclohexyl-5-hydroxypyridin-2-yl)methyl]-6-methyl-2,3-dihydro-1H-inden-4-yl}oxy)acetic acid] |
| 20 nM | B (2<(TRα/TRβ)<5) | Cc1cc(OC(C)(C)C(=O)O)cc(C)c1Cc1ccc(O)c(C2CCCCC2)n1 [Example 16, 2-{4-[(6-cyclohexyl-5-hydroxypyridin-2-yl)methyl]-3,5-dimethylphenoxy}-2-methylpropanoic acid] |
| 0.1 nM | B (2<(TRα/TRβ)<5) | Cc1cc(OCc2noc(=O)[nH]2)c(F)c(C)c1Cc1ccc(O)c(C(C)C)n1 [Example 37, 3-({2-fluoro^-4-[(5-hydroxy-6-isopropylpyridin-2-yl)methyl]-3,5-dimethylphenoxy}methyl)-1,2,4-oxadiazol-5(4H)-one] |
| 30 nM | B (2<(TRα/TRβ)<5) | Cc1cc(NC(=O)CC(=O)O)c(C)c(C)c1Cc1ccc(O)c(C2CCCCC2)n1 [Example 24, 3-({4-[(6-cyclohexyl-5-hydroxypyridin-2-yl)methyl]-2,3,5-trimethylphenyl}amino)-3-oxopropanoic acid] |
| 5 nM | A (5<(TRα/TRβ)) | Cc1nc(OCC(=O)O)c(C)c(C)c1Cc1ccc(O)c(C2CCCCC2)n1 [Example 45, ({5-[(6-cyclohexyl-5-hydroxypyridin-2-yl)methyl]-3,4,6-trimethylpyridin-2-yl}oxy)acetic acid] |

— patent publication US8791266B2, “Thyroid hormone β receptor agonist” (Mitsubishi Tanabe Pharma Corporation, priority 2009, dated 2014)
